{"source": "patent US8765465B2", "about": "“Efficient production and use of highly cardiogenic progenitors and cardiomyocytes from embryonic and induced pluripotent stem cells” (Kyoto University, priority 2008, dated 2014)", "molecules": {"B1": {"name": "Dkk1: factor from R&D Systems (protein, UniProt O94907 32-266, looked up)", "Dickkopf-related protein 1": "TLNSVLNSNAIKNLPPPLGGAAGHPGSAVSAAPGILYPGGNKYQTIDNYQPYPCAEDEECGTDEYCASPTRGGDAGVQICLACRKRRKRCMRHAMCCPGNYCKNGICVSSDQNHFRGEIEETITESFGNDHSTLDGYSRRTTLSSKMYHTKGQEGSVCLRSSDCASGLCCARHFWSKICKPVLKEGQVCTKHRRKGSHGLEIFQRCYCGEGLSCRIQKDHHQASNSSRLHTCQRH"}, "B2": {"name": "wnt3a: factor from R&D Systems (protein, UniProt P56704 19-352, looked up)", "Protein Wnt-3a": "SYPIWWSLAVGPQYSSLGSQPILCASIPGLVPKQLRFCRNYVEIMPSVAEGIKIGIQECQHQFRGRRWNCTTVHDSLAIFGPVLDKATRESAFVHAIASAGVAFAVTRSCAEGTAAICGCSSRHQGSPGKGWKWGGCSEDIEFGGMVSREFADARENRPDARSAMNRHNNEAGRQAIASHMHLKCKCHGLSGSCEVKTCWWSQPDFRAIGDFLKDKYDSASEMVVEKHRESRGWVETLRPRYTYFKVPTERDLVYYEASPNFCEPNPETGSFGTRDRTCNVSSHGIDGCDLLCCGRGHNARAERRREKCRCVFHWCCYVSCQECTRVYDVHTCK"}}, "key": {"[1]": {"tested_on": "Flk1+ mesoderm cells from EMG7 mouse ES cells", "experiment": "Cardiomyocyte induction from ES cell-derived Flk1+ mesoderm cells on OP9 (experiment 1)", "format": "cell-based", "settings": "added to Flk1+ cells", "experimental": "Undifferentiated ES cells were cultured on OP9 cells or type IV collagen (Col. IV)-coated dishes (ES-d0) for 96-108 h in differentiation medium (see Methods) to induce differentiation to Flk1^+ cells. Flk1^+/E-cadherin^− mesoderm cells obtained by FACS were plated onto OP9 stroma cells to induce further differentiation to cardiomyocytes (designated as Flk-d0). FCV cells appeared at Flk-d2 as Flk1^+/CXCR4^+/vascular endothelial cadherin^− population. Beating colonies started to be observed by Flk-d4. Appearance of alpha-MHC promoter-driven GFP^+ cardiomyocytes were evaluated and collected at Flk-d6. Experiment 1: differentiation from mesoderm to cardiomyocytes. […] Experiment 2: differentiation from undifferentiated ES cells to mesoderm. […] Experiment 3: differentiation from mesoderm to cardiac progenitors. […] Experiment 4: differentiation from cardiac progenitors to cardiomyocytes.\nAfter 96-108 h of ES cell differentiation, cultured cells were harvested and stained with allophycocyanin (APC)-conjugated AVAS12 and FITC-conjugated ECCD2. […] PKH-negative populations were analyzed and sorted as ES cell-derived cells. […] For FACS for cardiomyocytes, cells were harvested after 6 days culture of Flk1^+ cells on OP9 cells (Flk-d6), GFP^+ population was evaluated and sorted as differentiated cardiomyocytes."}, "[2]": {"tested_on": "Flk1+ cells", "experiment": "Mesoderm-specific treatment Flk-d0-2, cardiomyocytes at Flk-d6 (experiment 5)", "format": "cell-based, mouse", "settings": "added only Flk-d0-2", "source_text": "Beating colonies started to be observed by Flk-d4. […] Experiment 1: differentiation from mesoderm to cardiomyocytes. […] Experiment 2: differentiation from undifferentiated ES cells to mesoderm. […] Experiment 3: differentiation from mesoderm to cardiac progenitors. […] Experiment 4: differentiation from cardiac progenitors to cardiomyocytes.\nMedium was replaced every 2 days."}}, "data": [{"molecule": "11R-VIVIT", "values": [{"measurement": "effect on cardiomyocyte induction (cTnT staining)", "setting": "[1]", "value": "no significant effect"}]}, {"molecule": "TGF-β", "values": [{"measurement": "cardiomyocytes at Flk-d6 after mesoderm-specific addition", "setting": "[2]", "value": "significant decrease"}]}, {"molecule": "C=CC[C@@H]1/C=C(\\C)C[C@H](C)C[C@H](OC)[C@H]2O[C@@](O)(C(=O)C(=O)N3CCCC[C@H]3C(=O)O[C@H](/C(C)=C/[C@@H]3CC[C@@H](O)[C@H](OC)C3)[C@H](C)[C@@H](O)CC1=O)[C@H](C)C[C@@H]2OC", "note": "[FK506]", "values": [{"measurement": "effect on cardiomyocyte induction (cTnT staining)", "setting": "[1]", "value": "no significant effect"}]}, {"molecule": "B1", "values": [{"measurement": "cardiomyocytes at Flk-d6 after mesoderm-specific addition", "setting": "[2]", "value": "significantly increased"}, {"measurement": "effect on cardiomyocytes relative to that of CSA", "setting": "[2]", "value": "much weaker"}]}, {"molecule": "B2", "values": [{"measurement": "cardiomyocytes at Flk-d6 after mesoderm-specific addition", "setting": "[2]", "value": "significant decrease"}]}]}
